How the values were obtained:
[1] = system: isolated guinea-pig mesenteric artery; experiment: Relaxation of isolated mesenteric artery, pressure myograph (Ex 4); settings: for relaxation / artery diameter: endothelium present (adenosine, AL: with or without); for relaxation of isolated intact mesenteric artery: luminal or abluminal, 0.001 to 1 mM
Procedure: Male guinea pigs (250-300 g) were anesthetised and placed in a cradle and the abdomen opened. Second order mesenteric artery branches were isolated and mounted in a pressure myograph (see FIG. 4) under constant pressure of 60 mmHg and perfusion (luminal flow) of 100 uL/min with Krebs-Henseleit buffer (37° C.). Artery diameter was continuously measured using videomicroscopy (see FIG. 4). For the relaxation/vasodilation experiments arteries were equilibrated and then constricted with 10^−8 M arginine vasopressin (AVP). Adenosine, lidocaine or adenosine-lidocaine together were administered 2) luminally and 2) abluminally and concentration curves were obtained. Stock solutions of adenosine and lidocaine alone or adenosine-lidocaine combined were made in deionized water to 20 mM. A range of volumes were pipetted to provide contact concentrations with the vessel lumen or outer wall that ranged from 0.001 to 1 mM. At the end of experiments, arteries were dilated using calcium-free solution to obtain 100% relaxation. A number of arteries were denuded by introducing 5 ml air into the lumen with flow rate 1000 μl/min. The air outflow was then clamped until the intraluminal pressure reached 70 mmHg, flow rate was reduced to 2 μl/min and the vessel remained pressurized for 10 minutes

human NK(1) receptor = human NK(1) receptor (Homo sapiens, UniProt P25103); settings: cited from earlier work
human NK(1) receptor, sequence (P25103 whole entry): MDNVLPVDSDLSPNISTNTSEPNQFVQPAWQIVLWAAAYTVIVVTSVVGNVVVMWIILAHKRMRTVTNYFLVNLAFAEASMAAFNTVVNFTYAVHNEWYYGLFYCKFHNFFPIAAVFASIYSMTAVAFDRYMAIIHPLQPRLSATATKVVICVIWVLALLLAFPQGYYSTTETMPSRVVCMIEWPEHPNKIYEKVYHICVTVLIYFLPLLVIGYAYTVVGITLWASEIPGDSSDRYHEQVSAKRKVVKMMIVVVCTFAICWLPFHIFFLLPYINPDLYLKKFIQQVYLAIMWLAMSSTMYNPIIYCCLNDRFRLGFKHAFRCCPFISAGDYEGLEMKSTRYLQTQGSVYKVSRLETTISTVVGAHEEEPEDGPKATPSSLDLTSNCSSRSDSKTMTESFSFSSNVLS

[2] = humans, oral and/or intravenous 10, 25, 50, 100 mg/kg; cited from earlier work

Row | SMILES | relaxation / artery diameter [1] | relaxation of isolated intact mesenteric artery [1] | further results
1 | CCN(CC)CC(=O)Nc1c(C)cccc1C [lidocaine] | did not significantly change mesenteric artery diameter | failed to produce relaxation | relaxation ([1]; endothelium absent): relaxed the artery
2 | Cc1cccc(C)c1NC(=O)CN1CCN(C2CCN(C(=O)c3cc(C(F)(F)F)cc(C(F)(F)F)c3)C(Cc3ccccc3)C2)CC1 (centres unmarked) [R116301] | – | – | Ki (human NK(1) receptor): 0.45 nM; selectivity toward NK(2) and NK(3) receptors (human NK(1) receptor): over 200 fold
3 | Nc1ncnc2c1ncn2[C@@H]1O[C@H](CO)[C@@H](O)[C@H]1O [adenosine] | relaxed the mesenteric artery in a dose dependent manner | increased relaxation | –
4 | NC(=O)c1ncn([C@@H]2O[C@H](CO)[C@@H](O)[C@H]2O)c1N [Acadesine, 5-amino-4-imidazole carboxamide ribonucleoside] | – | – | safety [2]: safe in humans
